Test results taken from patent publication US6663862B1, “Reagents for detection and purification of antibody fragments” (Duke University, priority 1999, dated 2003).
Positions count from the first letter of the chain named. Marks after values point to notes of the source that are not given here.

Test system: Fc fragment of human IgG
Assay: Binding of B1 mutants to human IgG Fc fragment (acrylodan fluorescence titration; competition assay for weak binders)
Details: for DDG = −RTIn (Kd wild type/Kd mutant): T = 298K, relative to Q32C wild-type construct; for fold increase in Kd: hFc binding, relative to wild-type (Q32C) B1; for Kd: hFc, Q32C background, 20 mM KPO4 (pH 6.0), 25° C., direct titration, or competition with labeled wild-type B1-hFc complex for weak binders
Source text: Fluorophore coupling and iodoacetamide blocking. All of the above mutations were constructed into the Q32C background to allow site-specific covalent coupling with acrylodan for fluorescent binding assays as described by Sloan, D. J. and Hellinca, H. W. (1998) Prot. Eng. 11:819-823. In competitive binding experiments between fluorescently labeled wild-type B1 and unlabeled mutants, the free thiol in the mutant protein was blocked by reaction with iodoacetamide.
Binding of B1 mutants to human IgG Fc fragment. The binding constants for each of the alanine mutants were measured as an increase in fluorescence by direct titration of Fc fragment of human IgG (ICN Biomedicals, Costa Mesa, Calif.) into a solution containing 250nM acrylodan-conjugated B1 domain mutant in 20 mM KPO4 (pH 6.0) at 25° C. (excitation 392 nm; emission 500 nm; slit widths of 4 and 16 nm respectively). After each addition of protein, the solution was allowed to equilibrate for 30 seconds before the final fluorescence value was recorded.
Each titration comprised 20 points and was performed in triplicate. The data were fit to a binding isotherm that described a single binding site and takes into account all of the species present (Segel, I. H. (1975) Enzyme Kinetics, John Wiley & Sons, New York, N.Y.): [formula]
where F is the measured fluorescence with FO and Fmax representing the initial and final values, respectively. [B1]t and [hFc]t are the concentrations of B1 and hFc respectively, and the Kd is the disassociation constant. This equation is referred to herein as “Equation 1”.
The binding constants of weak binders (greater than 50-fold increases in Kd) were measured in a competition assay with a pre-formed complex (250 nM) of wild type Q32C construct conjugated to acrylodan and hFc. Binding constants were determined by measuring the decrease in fluorescence of the complex by the addition of iodoacetamide blocked mutant B1 domains. From these competition binding curves the Kd for each of the mutant B1 domains was calculated from the binding isotherm (Fierke, C. A. et al. (1991) Biochemistry 30:11054-11063): [formula]
where F is the measured fluorescence with Fo and Ff representing the initial and final values respectively. [B1wt] and [B1mut] are the concentrations of B1 wild type and mutant respectively, and the Kd is the disassociation constant of the mutant or wild type. This Equation is referred to herein as “Equation 2”.
Binding studies. The interaction of the mutant B1 domain with the hFc was measured using a fluorescence method described by Sloan, D. J. and Hellinga, H. W. (1998) Prot. Eng. 11:819-823, which relies on the attachment of an environmentally sensitive fluorophore placed at the rim of the binding site in a location such that its fluorescence changes upon formation of the complex by virtue of alterations in conformational degrees of freedom and solvent accessibility, without adversely affecting the binding constant. Binding constants for hFc were determined in a direct titration experiment in which purified hFc was added to a solution of a Q32C B1 mutant to which the fluorophore acrylodan was covalently coupled at position 32C (FIG. 2A). The binding constants for all the B1 mutants were determined in the Q32C background (Table 4).
This approach was used to avoid having to use large quantities of pure hFc.

Row | Substance | DDG = −RTIn (Kd wild type/Kd mutant) | fold increase in Kd [fold] | Kd [µM]
1 | 6: B1 domain of protein G, N35A mutant in Q32C background [Example 6] | 2.4 kcal/mol | 50 | 13
2 | 9: B1 domain of protein G, W43A mutant in Q32C background [Example 9] | 3.8 kcal/mol | 580 | 140
3 | 3: B1 domain of protein G, E27A mutant in Q32C background [Example 3] | >4.9^f kcal/mole | > 4000 | > 1000
4 | 7: B1 domain of protein G, D40A mutant in Q32C background [Example 7] | 0.3 kcal/mol | – | 0.38
5 | 10: B1 domain of protein G, T44/Y45A mutant in Q32C background [Example 10] | 2.0 kcal/mol | – | 6.5
6 | 8: B1 domain of protein G, E42A mutant in Q32C background [Example 8] | 0.4 kcal/mol | – | 0.46
7 | 2: B1 domain of protein G, T25A mutant in Q32C background [Example 2] | 0.24 kcal/mol | – | 0.36
8 | 4: B1 domain of protein G, K28A mutant in Q32C background [Example 4] | 1.3 kcal/mol | – | 2
9 | 1: B1 domain of protein G with Q32C mutation and His tag; the wild-type construct relative to which all measurements are made [Example 1, reference compound] | 0 kcal/mol | – | 0.24
10 | 5: B1 domain of protein G, K31A mutant in Q32C background [Example 5] | 3.5 kcal/mol | 350 | 85
